In patent US9321737B2, “CDK8-CDK19 selective inhibitors and their use in anti-metastatic and chemopreventative methods for cancer” (SENEX BIOTECHNOLOGY INC, priority 2012, dated 2016):

What was measured:
MDA-MB-231 = MDA-MB-231 orthotopic TNBC xenograft; type: in vivo, female SCID mice; conditions: 40 mg/kg, 5 daily doses, three rounds
Experimental: Once tumors were formed, mice were randomized into 4 cohorts (n=10) and treated, at 7-10 day intervals, with three rounds of: vehicle (5 daily doses), 1 mg/kg doxorubicin (single dose), 40 mg/kg Senexin B (5 daily doses) or doxorubicin (single dose)+Senexin B (5 daily doses).

CDK8 [1] = target: T1, CDK8 (Homo sapiens, UniProt P49336); assay: KinomeScan ATP pocket binding inhibition, CDK8; conditions: 2,000 nM
Source text: (§1) (16) The results of this analysis are presented in FIGS. 6A-B in the form of an evolutionary dendrogram of the kinase family, where kinase inhibition is represented by red circles, the size of which represents the magnitude of the inhibition.

[2] = system: β-catenin-dependent TOPFLASH promoter in HCT116 colon carcinoma cells; assay: β-catenin-dependent TOPFLASH luciferase assay; type: cell-based; conditions: different concentrations
Experimental: The effect of different concentrations of Senexin B on luciferase expression from β-catenin-dependent TOPFLASH promoter in HCT116 colon carcinoma cells was measured as described in US Patent Publication 20120071477 for Senexin A (SNX2-1-53).

YSK4 = target: T2, YSK4 (Homo sapiens, UniProt Q56UN5); assay: KinomeScan ATP pocket binding inhibition, YSK4; conditions: 2,000 nM
T2 construct: purchased KinomeScan, a division of Ambit Biosciences
T2 sequence (Q56UN5 1-1328): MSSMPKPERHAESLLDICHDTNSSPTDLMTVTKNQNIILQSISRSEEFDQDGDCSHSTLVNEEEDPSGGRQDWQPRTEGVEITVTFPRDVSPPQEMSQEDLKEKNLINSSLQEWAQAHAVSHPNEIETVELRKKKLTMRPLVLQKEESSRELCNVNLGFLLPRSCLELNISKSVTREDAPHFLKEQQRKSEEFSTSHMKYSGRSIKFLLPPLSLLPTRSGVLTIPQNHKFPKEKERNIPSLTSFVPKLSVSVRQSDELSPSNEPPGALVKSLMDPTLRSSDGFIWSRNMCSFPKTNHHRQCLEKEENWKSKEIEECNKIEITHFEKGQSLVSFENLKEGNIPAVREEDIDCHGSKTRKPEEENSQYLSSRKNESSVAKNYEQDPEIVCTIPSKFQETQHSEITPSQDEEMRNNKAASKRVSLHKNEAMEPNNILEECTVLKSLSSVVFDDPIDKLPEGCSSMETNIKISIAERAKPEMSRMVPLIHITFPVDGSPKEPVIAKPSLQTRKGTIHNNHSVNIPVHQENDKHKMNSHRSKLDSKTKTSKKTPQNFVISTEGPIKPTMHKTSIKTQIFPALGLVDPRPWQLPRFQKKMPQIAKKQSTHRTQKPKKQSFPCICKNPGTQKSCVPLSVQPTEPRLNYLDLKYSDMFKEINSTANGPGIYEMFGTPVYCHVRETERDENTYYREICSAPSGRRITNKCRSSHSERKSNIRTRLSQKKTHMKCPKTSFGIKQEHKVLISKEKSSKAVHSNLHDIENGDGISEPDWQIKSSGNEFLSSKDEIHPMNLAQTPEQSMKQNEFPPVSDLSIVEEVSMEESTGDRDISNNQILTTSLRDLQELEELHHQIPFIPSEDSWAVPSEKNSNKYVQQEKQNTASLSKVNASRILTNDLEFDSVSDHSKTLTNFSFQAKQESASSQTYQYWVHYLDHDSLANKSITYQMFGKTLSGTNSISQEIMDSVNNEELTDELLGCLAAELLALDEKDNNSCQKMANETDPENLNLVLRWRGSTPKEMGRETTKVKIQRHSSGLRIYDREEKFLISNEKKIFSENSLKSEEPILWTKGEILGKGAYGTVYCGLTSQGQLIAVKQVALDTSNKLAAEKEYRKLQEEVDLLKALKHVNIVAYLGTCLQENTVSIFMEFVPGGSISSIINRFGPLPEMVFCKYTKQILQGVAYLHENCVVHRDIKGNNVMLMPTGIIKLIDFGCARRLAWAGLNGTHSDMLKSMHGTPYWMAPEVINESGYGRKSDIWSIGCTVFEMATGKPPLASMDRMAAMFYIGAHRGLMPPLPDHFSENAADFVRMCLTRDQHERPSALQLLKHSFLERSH
Source text: as §1

MDA-MB-468 = MDA-MB-468 TNBC xenograft model; type: in vivo, female nude mice; conditions: 40 mg/kg Senexin B daily i.p.; 4 mg/kg doxorubicin two injections two weeks apart
Experimental: Female nude mice were inoculated with MDA-MB-468 cells, and once palpable tumors were formed, mice were randomized into 4 groups, treated daily i.p. with vehicle alone (n=12), 40 mg/kg Senexin B, two injections with 4 mg/kg doxorubicin two weeks apart, or doxorubicin combined with Senexin B (n=8 in each of the latter groups).

CDK19 = CDK19 (Homo sapiens, UniProt Q9BWU1); assay: KinomeScan ATP pocket binding inhibition, CDK19; conditions: 2,000 nM
Source text: as §1

[3] = system: MDA-MB-468 triple-negative breast cancer (TNBC) cells; assay: Pretreatment and treatment, MDA-MB-468 orthotopic engraftment; type: in vivo, female nude mice
Experimental: Next we tested the effect of 5-day pretreatment with 25 mg/kg daily doses of Senexin B (i.p.) on the engraftment of MDA-MB-468 triple-negative breast cancer (TNBC) cells, injected orthotopically in the fat pad of 6-8 week old female nude mice (4 per group), following the last Senexin B treatment. The appearance of palpable tumors was scored every day. […] In the experiment shown in FIG. 9B, mice were treated (daily i.p. injections with 40 mg/kg Senexin B) both before MDA-MB-468 injection (for three days) and after the injection.

CDK8 [4] = target: T1, CDK8; assay: In vitro CDK8 kinase activity inhibition (ProQinase assay kit); conditions: read-out: IC50, inhibition of CDK8 kinase activity, different assays

T1 sequence (P49336 whole entry): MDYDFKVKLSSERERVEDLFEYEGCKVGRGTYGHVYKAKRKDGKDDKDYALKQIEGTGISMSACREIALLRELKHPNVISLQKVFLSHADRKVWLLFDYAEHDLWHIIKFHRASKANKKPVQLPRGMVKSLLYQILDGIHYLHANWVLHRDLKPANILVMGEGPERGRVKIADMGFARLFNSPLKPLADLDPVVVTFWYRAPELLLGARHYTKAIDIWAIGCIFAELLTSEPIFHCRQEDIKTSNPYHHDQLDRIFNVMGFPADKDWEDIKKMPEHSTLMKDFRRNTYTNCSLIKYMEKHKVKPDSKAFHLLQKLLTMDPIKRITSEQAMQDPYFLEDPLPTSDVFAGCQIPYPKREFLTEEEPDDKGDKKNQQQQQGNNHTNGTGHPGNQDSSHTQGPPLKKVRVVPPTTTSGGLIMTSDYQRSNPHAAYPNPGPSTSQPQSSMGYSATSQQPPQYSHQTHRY
Chain of CDK19 (Q9BWU1 whole entry): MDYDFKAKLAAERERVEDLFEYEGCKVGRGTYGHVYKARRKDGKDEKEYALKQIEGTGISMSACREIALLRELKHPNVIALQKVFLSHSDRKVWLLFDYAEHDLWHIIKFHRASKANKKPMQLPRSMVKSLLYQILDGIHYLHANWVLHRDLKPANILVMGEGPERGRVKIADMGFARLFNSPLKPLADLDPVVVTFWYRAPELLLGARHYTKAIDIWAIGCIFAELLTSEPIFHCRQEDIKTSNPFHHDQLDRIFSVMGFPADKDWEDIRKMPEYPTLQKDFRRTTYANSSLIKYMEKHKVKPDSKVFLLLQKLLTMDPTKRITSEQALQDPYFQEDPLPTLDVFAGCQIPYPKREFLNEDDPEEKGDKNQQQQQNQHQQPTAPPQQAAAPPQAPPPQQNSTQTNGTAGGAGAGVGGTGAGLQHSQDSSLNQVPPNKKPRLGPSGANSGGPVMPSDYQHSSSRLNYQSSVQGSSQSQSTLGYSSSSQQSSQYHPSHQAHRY

## CN1CCN(C(=O)c2ccc3cc(CCNc4ncnc5ccc(C#N)cc45)ccc3c2)CC1 [SNX2-1-165]
MDA-MB-231
  body weight difference from control: no significant weight difference from the control
CDK8 [1]
  % inhibition of CDK8: 97.8%
[2]
  luciferase expression from TOPFLASH promoter (β-catenin activity): concentration-dependent inhibition
YSK4
  % inhibition of YSK4: 59%
MDA-MB-468
  tumor growth (tumor volumes after 30 days of treatment): significantly slowed down the tumor growth
CDK19
  % inhibition of CDK19: 98.6%
[3]; 5-day pretreatment 25 mg/kg daily i.p.
  appearance of palpable tumors: significantly slower appearance of palpable tumors
[3]; daily i.p. 40 mg/kg, three days before and after injection
  tumor growth (tumor volumes, caliper): strong and sustained inhibition of tumor growth
CDK8 [4]
  IC50: 24 to 50 nM
